The assay deals with C2C12 mouse myoblast viability, CellTiter-Glo ATP, 8-48 h. Put plainly: cytotoxicity in mouse C2C12 myoblasts – cell-based, CellTiter-Glo ATP luminescence, 8/24/48 h, dry powder, cytotoxicity control for HRAS target identification, dose response (AID 720603).

Results filed as inconclusive are left out.

The results in this text go back to PubChem BioAssay AID720603 (Broad Institute, 2013).

Regarding `CC(C)(C)OC(=O)NCCOCCOCCOc1ccc(N(C(=O)CCl)C(C(=O)NCCc2ccccc2)c2cccs2)cc1Cl` (stereo unspecified), the AC50 amounted to 1380 nM (measured here: 8 h treatment), 161 nM (measured here: 24 h treatment) and 388 nM (measured here: 48 h treatment).

Regarding `COC(=O)c1ccc([C@@H]2c3[nH]c4ccccc4c3C[C@@H](C(=O)OC)N2C(=O)CCl)cc1`, the AC50 is, setting by setting: (measured here: 8 h treatment) 597 nM; (measured here: 24 h treatment) 21.2 nM; (measured here: 48 h treatment) 80.6 nM.

As for `COc1ccc(N(C(=O)CCl)C(C(=O)NCCc2ccccc2)c2cccs2)cc1Cl` (stereo unspecified), the AC50 was 17800 nM (measured here: 8 h treatment), 108 nM (measured here: 24 h treatment) and 311 nM (measured here: 48 h treatment).

The compound `C#CCCCC(=O)NCCOCCOCCOc1ccc(N(C(=O)CCl)C(C(=O)NCCc2ccccc2)c2cccs2)cc1Cl` (stereo unspecified) had an AC50 (measured here: 24 h treatment) of 1330 nM and an AC50 (measured here: 48 h treatment) of 2620 nM.

As a reminder, the AC50 is the midpoint of the concentration-response curve, whichever way the signal moves.
